For data set [1], the system named is Balb/c mice. The experiment in a line: EPO levels in plasma by EPO MSD kit after IV injection of EPO mRNA LNP. It counts as in vivo. On the procedure:
8-9 week old female Balb/c mice are utilized for bioluminescence-based ionizable lipid screening efforts. Mice are obtained from Jackson Laboratories (JAX Stock: 000651) and allowed to acclimate for one week prior to manipulations. Animals are placed under a heat lamp for a few minutes before introducing them to a restraining chamber. The tail is wiped with alcohol pads (Fisher Scientific) and 100 μL of a lipid nanoparticle composition descrbed above containing 10 ug total mRNA (5 ug Fluc+5 ug EPO) is injected intravenously using a 29 G insulin syringe (Covidien). Any resulting bleeding is stemmed using a sterile gauze pad (Fisher Scientific) and animals are placed back into their home cage. 4-6 hours post-dose, animals are injected with 200 μL of 15 mg/mL D-Luciferin (GoldBio) and placed in an isoflurane induction chamber set to deliver 2.5% isoflurane delivered at an oxygen flow rate of 1-2 liters per min. After 5 minutes of isoflurane exposure, mice are placed in set nose cones inside the IVIS Lumina LT imager (PerkinElmer). LivingImage software is utilized for imaging. Whole body bio-luminescence is captured at auto-exposure after which animals are removed from the IVIS and placed into a CO2 chamber for euthanasia. Cardiac puncture is performed on each animal after placing it in dorsal recumbency, and blood collection is performed using a 25 G insulin syringe (BD). Blood is collected in Lithium-Heparin coated tubes (Fisher Scientific) and immediately placed on ice. Once all blood samples are collected, tubes are spun at 2000 G for 10 minutes using a tabletop centrifuge and plasma is aliquoted into individual Eppendorf tubes (Fisher Scientific) and stored at −80 C for subsequent EPO quantification. EPO levels in plasma are determined using EPO MSD kit (Meso Scale Diagnostics).
8-9 week old female Balb/c mice were utilized for bioluminescence-based ionizable lipid screening efforts. Mice were obtained from Jackson Laboratories (JAX Stock: 000651) and allowed to acclimate for one week prior to manipulations. Animals were placed under a heat lamp for a few minutes before introducing them to a restraining chamber. The tail was wiped with alcohol pads (Fisher Scientific) and, for each LNP composition descrbed above, 100 μL of a lipid nanoparticle composition descrbed above containing 10 μg total mRNA (5 μg Fluc+5 μg EPO, 5 μg Fluc+5 μg Cre, or 5 μg EGFP) was injected intravenously using a 29 G insulin syringe (Covidien).
4-6 hours post-dose, animals were injected with 200 μL of 15 mg/mL D-Luciferin (GoldBio), and placed in set nose cones inside the IVIS Lumina LT imager (PerkinElmer). LivingImage software was utilized for imaging. Whole body bio-luminescence was captured at auto-exposure after which animals are removed from the IVIS and placed into a CO2 chamber for euthanasia. Cardiac puncture was performed on each animal after placing it in dorsal recumbency, and blood collection was performed using a 25 G insulin syringe (BD). Once all blood samples were collected, tubes are spun at 2000 G for 10 minutes using a tabletop centrifuge and plasma was aliquoted into individual Eppendorf tubes (Fisher Scientific) and stored at −80° C. for subsequent EPO quantification. EPO levels in plasma were determined using EPO MSD kit (Meso Scale Diagnostics).

Data set [2] concerns Balb/c mice. The experiment in a line: In-vivo bioluminescent imaging after IV injection of Fluc mRNA LNP. As to conditions: for Bioluminescence (IV) Liver / Bioluminescence (IV) Lung / Bioluminescence (IV) Spleen / Bioluminescence (IV) Whole Body / Spleen: Liver Ratio: Example 5 LNP (DOPE 35:16:46.5:2.5), 5 μg FLUC + 5 μg EPO; for Bioluminescence (IV) Liver / Bioluminescence (IV) Lung / Bioluminescence (IV) Spleen / Bioluminescence (IV) Whole Body / Bioluminescence Liver / Bioluminescence Lung / Bioluminescence Spleen: 4-6 hours post-dose; for Bioluminescence (IV) Liver / Bioluminescence (IV) Lung / Bioluminescence (IV) Spleen / Bioluminescence (IV) Whole Body / Spleen: Liver Ratio / Bioluminescence Liver / Bioluminescence Lung / Bioluminescence Spleen: IV; for Spleen: Liver Ratio: ratio of bioluminescence; for Bioluminescence Liver / Bioluminescence Lung / Bioluminescence Spleen: 5 ug Fluc+5 ug EPO mRNA.

Data set [3] in a line: mRNA encapsulation efficiency, Quant-iT RiboGreen RNA Assay. The conditions noted are these: LNP ionizable lipid:DSPC:Plant Chol.:DMPE-PEG2k 50:10:38.5:1.5. It counts as physicochemical.
Setting [4] is: Example 5 LNP (DOPE 35:16:46.5:2.5), 5 μg FLUC + 5 μg EPO.
Setting [5] is: LNP lipid:DOPE:Plant Chol.:DMPE-PEG2k 35:16:46.5:2.5 (Table 1).
[6] abbreviates: LNP lipid:DSPC:Plant Chol.:DMPE-PEG2k 50:10:38.5:1.5.

Structures are written as SMILES.

For the compound `C=C(CN(CCCCCCCC(=O)OC(CCCCCCCC)CCCCCCCC)CCCCCC(=O)OCCCCCCCCCCC)CN(CCCCCCCC(=O)OC(CCCCCCCC)CCCCCCCC)CCCCCC(=O)OCCCCCCCCCCC` [Compound 2253, 1-octylnonyl 8-[2-[[[8-(1-octylnonoxy)-8-oxo-octyl]-(6-oxo-6-undecoxy-hexyl)amino]methyl]allyl-(6-oxo-6-undecoxy-hexyl)amino]octanoate], in the data set with Balb/c mice [1] (setting [4]), the hEPO is listed as 8.9E+01. The hEPO in the data set on Balb/c mice [1] (LNP lipid:DOPE:Plant Chol.:DMPE-PEG2k 35:16:46.5:2.5 (Table 1), 5 ug Fluc+5 ug EPO mRNA) was determined as 8.89E+01. The compound also returned a hEPO in the data set with Balb/c mice [1] (LNP lipid:DSPC:Plant Chol.:DMPE-PEG2k 50:10:38.5:1.5, 5 ug Fluc+5 ug EPO mRNA) of 8.89E+01. In the data set with Balb/c mice [2], the “Bioluminescence (IV) Liver” value turned out to be 1.3E+03, the “Bioluminescence (IV) Lung” value is recorded as 7.2E+02, the “Bioluminescence (IV) Spleen” value stood at 1.2E+03 and the “Bioluminescence (IV) Whole Body” value turned out to be 3.8E+03. The “Spleen: Liver Ratio” value with Balb/c mice [2] amounted to 0.937. In the data set on Balb/c mice [2] (setting [5]), the “Bioluminescence Liver” value came to 1.33E+03, the “Bioluminescence Lung” value is 7.18E+02 and the “Bioluminescence Spleen” value stood at 1.24E+03. In the data set on Balb/c mice [2] (setting [6]), the “Bioluminescence Liver” value came out at 1.30E+03, the “Bioluminescence Lung” value worked out at 6.16E+02 and the “Bioluminescence Spleen” value is 9.98E+02. For the same compound, the “bioluminescence in the liver, spleen, and lung” value in the data set with Balb/c mice [2] (used as part of an ionizable lipid scaffold (LNP), Table 1) is recorded as “improved bioluminescence”. Further, the “% EE” value in data set [3] was 27.3%.
As to `CCCCCCCCCCCC(=O)OCCCCCN(CCCCCCCC(=O)OC(CCCCCCCC)CCCCCCCC)CCNC(=O)CCC(=O)NCCN(CCCCCCCC(=O)OC(CCCCCCCC)CCCCCCCC)CCCCCOC(=O)CCCCCCCCCCC` [Compound 2354, 5-[2-[[4-[2-[5-dodecanoyloxypentyl-[8-(1-octylnonoxy)-8-oxo-octyl]amino]ethylamino]-4-oxo-butanoyl]amino]ethyl-[8-(1-octylnonoxy)-8-oxo-octyl]amino] pentyl dodecanoate], in the data set on Balb/c mice [1] (setting [4]), the hEPO turned out to be 1.4E+06. Also, in the data set on Balb/c mice [2], the “Bioluminescence (IV) Liver” value stood at 5.6E+06, the “Bioluminescence (IV) Lung” value came out at 6.2E+03, the “Bioluminescence (IV) Spleen” value is recorded as 7.3E+05 and the “Bioluminescence (IV) Whole Body” value came out at 4.5E+07. Further, in the data set on Balb/c mice [2], the “Spleen: Liver Ratio” value came to 0.131.
Consider `CCCCCCCCCCCOC(=O)CCCCCN(CCCCCCCC(=O)OC(CCCCCCCC)CCCCCCCC)CCCNC(=O)CN(CC(=O)NCCCN(CCCCCCCC(=O)OC(CCCCCCCC)CCCCCCCC)CCCCCC(=O)OCCCCCCCCCCC)C(=O)CCN1CCCC1` [Compound 2353, 1-octylnonyl8-[3-[[2-[[2-[3-[[8-(1-octylnonoxy)-8-oxo-octyl]-(6-oxo-6-undecoxy-hexyl)amino]propylamino]-2-oxo-ethyl]-(3-pyrrolidin-1-ylpropanoyl)amino]acetyl]amino]propyl-(6-oxo-6-undecoxy-hexyl)amino]octanoate], for which the hEPO with Balb/c mice [1] (setting [4]) came to 9.7E+03. Besides, in the data set with Balb/c mice [2], the “Bioluminescence (IV) Liver” value came to 9.7E+03, the “Bioluminescence (IV) Lung” value is 3.2E+04, the “Bioluminescence (IV) Spleen” value is on record as 1.3E+05 and the “Bioluminescence (IV) Whole Body” value is 7.8E+04. For the same compound, the “Spleen: Liver Ratio” value in the data set with Balb/c mice [2] is on record as 7.617.
In the case of `CCCCCCCCCCC(CC)OC(=O)CCCCCN(CCCCCCCC(=O)OC(CCCCCCCC)CCCCCCCC)CCNC(=O)CCC(=O)NCCN(CCCCCCCC(=O)OC(CCCCCCCC)CCCCCCCC)CCCCCC(=O)OC(CC)CCCCCCCCCC` (stereo not shown) [Compound 2356, 1-octylnonyl 8-[[6-(1-ethylundecoxy)-6-oxo-hexyl]-[2-[[4-[2-[[6-(1-ethylundecoxy)-6-oxo-hexyl]-[8-(1-octylnonoxy)-8-oxo-octyl]amino]ethylamino]-4-oxo-butanoyl]amino]ethyl]amino]octanoate], the hEPO in the data set on Balb/c mice [1] (setting [4]) was found to be 1.3E+08. In the data set with Balb/c mice [2], the “Bioluminescence (IV) Liver” value is 1.3E+08, the “Bioluminescence (IV) Lung” value worked out at 9.1E+03, the “Bioluminescence (IV) Spleen” value is recorded as 1.3E+06 and the “Bioluminescence (IV) Whole Body” value was 8.1E+08. Moreover, in the data set with Balb/c mice [2], the “Spleen: Liver Ratio” value worked out at 0.010.
Take `CCCCCCCCCC(=O)OCCCCCCCN(CCCCCCCC(=O)OC(CCCCCCCC)CCCCCCCC)CCNC(=O)CCC(=O)NCCN(CCCCCCCOC(=O)CCCCCCCCC)CCCCCCCC(=O)OC(CCCCCCCC)CCCCCCCC` [Compound 2272, 7-[2-[[4-[2-[7-decanoyloxyheptyl-[8-(1-octylnonoxy)-8-oxo-octyl]amino]ethylamino]-4-oxo-butanoyl]amino]ethyl-[8-(1-octylnonoxy)-8-oxo-octyl]amino]heptyl decanoate]: in the data set on Balb/c mice [1] (setting [4]), the hEPO is reported as 1.8E+06. In the data set on Balb/c mice [2], the “Bioluminescence (IV) Liver” value was 1.8E+07, the “Bioluminescence (IV) Lung” value was 1.5E+04, the “Bioluminescence (IV) Spleen” value is recorded as 1.0E+06 and the “Bioluminescence (IV) Whole Body” value came out at 1.3E+08. Besides, the “Spleen: Liver Ratio” value in the data set on Balb/c mice [2] was 0.055.
Regarding `CCCCCCCCCCCOC(=O)CCCCCN(CCCCCCCC(=O)OCCCC(CCCCC)CCCCC)CCN1CCN(CCN(CCCCCCCC(=O)OCCCC(CCCCC)CCCCC)CCCCCC(=O)OCCCCCCCCCCC)CC1` [Compound 2397, 4-pentylnonyl 8-[2-[4-[2-[[8-oxo-8-(4-pentylnonoxy)octyl]-(6-oxo-6-undecoxy-hexyl)amino]ethyl]piperazin-1-yl]ethyl-(6-oxo-6-undecoxy-hexyl)amino]octanoate], the hEPO in the data set with Balb/c mice [1] (setting [4]) was 1.5E+06. For the same compound, in the data set on Balb/c mice [2], the “Bioluminescence (IV) Liver” value turned out to be 1.4E+07, the “Bioluminescence (IV) Lung” value was found to be 9.4E+03, the “Bioluminescence (IV) Spleen” value is 6.5E+05 and the “Bioluminescence (IV) Whole Body” value is given as 6.5E+07. The “Spleen: Liver Ratio” value in the data set with Balb/c mice [2] came out at 0.052.
As to `CCCCCCCCCCCOC(=O)CCCCCN(CCCCCCCC(=O)OC(CCCCCCCC)CCCCCCCC)CCNC(=O)NCCN(CCCCCCCC(=O)OC(CCCCCCCC)CCCCCCCC)CCCCCC(=O)OCCCCCCCCCCC` [Compound 2246, 1-octylnonyl8-[2-[2-[[8-(1-octylnonoxy)-8-oxo-octyl]-(6-oxo-6-undecoxy-hexyl)amino]ethylcarbamoylamino]ethyl-(6-oxo-6-undecoxy-hexyl)amino]octanoate], the hEPO in the data set on Balb/c mice [1] (setting [4]) was found to be 3.6E+06. Besides, in the data set with Balb/c mice [2], the “Bioluminescence (IV) Liver” value stood at 1.8E+07, the “Bioluminescence (IV) Lung” value was found to be 3.7E+03, the “Bioluminescence (IV) Spleen” value was determined as 1.3E+05 and the “Bioluminescence (IV) Whole Body” value is recorded as 1.3E+08. In addition, in the data set with Balb/c mice [2], the “Spleen: Liver Ratio” value came out at 0.007.

The values are drawn from patent US20250051263A1, “NOVEL IONIZABLE LIPIDS AND LIPID NANOPARTICLES AND METHODS OF USING THE SAME” (Sail Biomedicines, Inc., priority 2021, published 2025).
